Reference: PubChem BioAssay AID1963856 (Molecular Pharmacology Branch, DTP, NCI, 2024)

Tested on: LG0567-F671-PDC KRAS tumor spheroid viability
Test: Anticancer human tumor LG0567-F671-PDC patient-derived lung adenocarcinoma cell line growth inhibition [KRAS2]
Conditions: spheroids with HUVEC and MSC; for IC50: curve of first compound; for viability, T/C: stronger effect = lower value
How it was run: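 KRAS-mutant tumor cells were grown as spheroids with HUVEC endothelial cells and human MSCs as stroma. Targeted agents were tested alone and with KRAS pathway inhibitors. Doses started at or near clinical Cmax, or 10 microM, descending half-log.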

[1] = second compound 0.1 µM, first compound 0.0316 µM
[2] = second compound 0.1 µM, first compound 0.1 µM
[3] = second compound 0.1 µM, first compound 0.316 µM
[4] = second compound 0.1 µM, first compound 1 µM
[5] = second compound 0.1 µM, first compound 3.16 µM
[6] = second compound 0.1 µM, first compound 10 µM
[7] = second compound 0.316 µM, first compound 0.0316 µM
[8] = second compound 0.316 µM, first compound 0.1 µM
[9] = second compound 0.316 µM, first compound 0.316 µM
[10] = second compound 0.316 µM, first compound 1 µM
[11] = second compound 0.316 µM, first compound 3.16 µM
[12] = second compound 0.316 µM, first compound 10 µM
[13] = second compound 1 µM, first compound 0.0316 µM
[14] = second compound 1 µM, first compound 0.1 µM
[15] = second compound 1 µM, first compound 0.316 µM
[16] = second compound 1 µM, first compound 1 µM
[17] = second compound 1 µM, first compound 3.16 µM
[18] = second compound 1 µM, first compound 10 µM
[19] = second compound 3.16 µM, first compound 0.0316 µM
[20] = second compound 3.16 µM, first compound 0.1 µM
[21] = second compound 3.16 µM, first compound 0.316 µM
[22] = second compound 3.16 µM, first compound 1 µM
[23] = second compound 3.16 µM, first compound 3.16 µM
[24] = second compound 3.16 µM, first compound 10 µM
[25] = second compound 10 µM, first compound 0.0316 µM
[26] = second compound 10 µM, first compound 0.1 µM
[27] = second compound 10 µM, first compound 0.316 µM
[28] = second compound 10 µM, first compound 1 µM
[29] = second compound 10 µM, first compound 3.16 µM
[30] = second compound 10 µM, first compound 10 µM
[31] = second compound 0.1 µM, first compound 0.00316 µM
[32] = second compound 0.1 µM, first compound 0.01 µM
[33] = second compound 0.316 µM, first compound 0.00316 µM
[34] = second compound 0.316 µM, first compound 0.01 µM
[35] = second compound 1 µM, first compound 0.00316 µM
[36] = second compound 1 µM, first compound 0.01 µM
[37] = second compound 3.16 µM, first compound 0.00316 µM
[38] = second compound 3.16 µM, first compound 0.01 µM
[39] = second compound 10 µM, first compound 0.00316 µM
[40] = second compound 10 µM, first compound 0.01 µM
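Note: drug exposure lasted seven days after spheroids formed for three days.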
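Throughout, for viability, T/C: 100% = DMSO vehicle control viability.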

SMILES | IC50 (second compound 0.1 µM) [nM] | IC50 (second compound 0.316 µM) [nM] | IC50 (second compound 1 µM) [nM] | IC50 (second compound 3.16 µM) [nM] | IC50 (second compound 10 µM) [nM] | viability, T/C [1] [%] | viability, T/C [2] [%] | viability, T/C [3] [%] | viability, T/C [4] [%] | viability, T/C [7] [%] | viability, T/C [8] [%] | viability, T/C [9] [%] | viability, T/C [10] [%] | viability, T/C [13] [%] | viability, T/C [14] [%] | viability, T/C [15] [%] | viability, T/C [19] [%] | viability, T/C [20] [%] | viability, T/C [25] [%] | viability, T/C [26] [%] | further results
CC(C)NCC(C(=O)N1CCN(c2ncnc3c2C(C)CC3O)CC1)c1ccc(Cl)cc1 (stereo not given) + COc1cc2nc(C)nc(NC(C)c3cc(N)cc(C(F)(F)F)c3)c2cc1OC1CCOC1 | 484 | 467 | 216 | 415 | 50.7 | 75.4 | 69.1 | 56.2 | 42 | 75.8 | 65.2 | 59.1 | 33.9 | 71.5 | 58.5 | 44 | 60.1 | 58.3 | 56.7 | 39.8 | viability, T/C [5]: 14.1%; viability, T/C [6]: 33.5%; viability, T/C [11]: 8.71%; viability, T/C [12]: 23.5%; viability, T/C [16]: 32.2%; viability, T/C [17]: 7.19%; viability, T/C [18]: 2.61%; viability, T/C [21]: 66.4%; viability, T/C [22]: 12%; viability, T/C [23]: 5.68%; viability, T/C [24]: 19.6%; viability, T/C [27]: 21.6%; viability, T/C [28]: 5.09%; viability, T/C [29]: 3.01%; viability, T/C [30]: 4.23%
CC1(C)CCC(CN2CCN(c3ccc(C(=O)NS(=O)(=O)c4ccc(NCC5CCOCC5)c([N+](=O)[O-])c4)c(Oc4cnc5[nH]ccc5c4)c3)CC2)=C(c2ccc(Cl)cc2)C1 + COc1cc2nc(C)nc(NC(C)c3cc(N)cc(C(F)(F)F)c3)c2cc1OC1CCOC1 | 1510 | 1360 | 1360 | 1220 | 640 | 73.5 | 67.3 | 59 | 68.8 | 67.5 | 66.5 | 61.2 | 59.6 | 69 | 73.3 | 72.6 | 70.2 | 70.7 | 81.3 | 76.5 | viability, T/C [5]: 18.8%; viability, T/C [6]: 11.7%; viability, T/C [11]: 25%; viability, T/C [12]: 7.5%; viability, T/C [16]: 58.7%; viability, T/C [17]: 24.1%; viability, T/C [18]: 3.67%; viability, T/C [21]: 62.8%; viability, T/C [22]: 57.8%; viability, T/C [23]: 15.6%; viability, T/C [24]: 5.87%; viability, T/C [27]: 63%; viability, T/C [28]: 42.7%; viability, T/C [29]: 14.1%; viability, T/C [30]: 1.67%
CCN1CCN(Cc2ccc(Nc3ncc(F)c(-c4cc(F)c5nc(C)n(C(C)C)c5c4)n3)nc2)CC1 + COc1cc2nc(C)nc(NC(C)c3cc(N)cc(C(F)(F)F)c3)c2cc1OC1CCOC1 | 913 | 47.3 | 7.74 | < 3.16 | 5.32 | 54.3 | 56.7 | 54.8 | 47.3 | 51.5 | 47.5 | 44.2 | 45.3 | 45.7 | 38.7 | 32.2 | 34.7 | 33.6 | 26.5 | 9.45 | viability, T/C [31]: 70.5%; viability, T/C [32]: 64.7%; viability, T/C [33]: 69%; viability, T/C [34]: 64.2%; viability, T/C [35]: 57.3%; viability, T/C [36]: 47.3%; viability, T/C [16]: 42.4%; viability, T/C [37]: 44.4%; viability, T/C [38]: 39.5%; viability, T/C [21]: 29.4%; viability, T/C [22]: 30.8%; viability, T/C [39]: 60.8%; viability, T/C [40]: 34.8%; viability, T/C [27]: 0.94%; viability, T/C [28]: 0.43%
CCNC(=O)CC1N=C(c2ccc(Cl)cc2)c2cc(OC)ccc2-n2c(C)nnc21 (stereo not given) + COc1cc2nc(C)nc(NC(C)c3cc(N)cc(C(F)(F)F)c3)c2cc1OC1CCOC1 | 410 | 411 | 403 | 319 | 224 | 97 | 82.3 | 61.6 | 17.1 | 109 | 96.5 | 62.3 | 10 | 84.6 | 87.8 | 60.9 | 78.9 | 69.9 | 74.5 | 59.8 | viability, T/C [5]: 8.29%; viability, T/C [6]: 5.17%; viability, T/C [11]: 8.83%; viability, T/C [12]: 7.95%; viability, T/C [16]: 9.34%; viability, T/C [17]: 7.07%; viability, T/C [18]: 8.48%; viability, T/C [21]: 50.8%; viability, T/C [22]: 9.17%; viability, T/C [23]: 6.95%; viability, T/C [24]: 10.1%; viability, T/C [27]: 47.5%; viability, T/C [28]: 20.6%; viability, T/C [29]: 10%; viability, T/C [30]: 8.82%
Cn1ncnc1[C@H]1c2n[nH]c(=O)c3cc(F)cc(c23)N[C@@H]1c1ccc(F)cc1 + COc1cc2nc(C)nc(NC(C)c3cc(N)cc(C(F)(F)F)c3)c2cc1OC1CCOC1 | > 100 | > 100 | > 100 | > 100 | > 100 | 84.7 | 82.8 |  |  | 81.4 | 75.9 |  |  | 53.7 | 53.8 |  | 53.6 | 51.9 | 51.7 | 53.6 | viability, T/C (second compound 0.1 µM, first compound 0.000316 µM): 94.8%; viability, T/C (second compound 0.1 µM, first compound 0.001 µM): 78.3%; viability, T/C [31]: 74.8%; viability, T/C [32]: 83.8%; viability, T/C (second compound 0.316 µM, first compound 0.000316 µM): 77.6%; viability, T/C (second compound 0.316 µM, first compound 0.001 µM): 74.9%; viability, T/C [33]: 61.1%; viability, T/C [34]: 66.3%; viability, T/C (second compound 1 µM, first compound 0.000316 µM): 75.6%; viability, T/C (second compound 1 µM, first compound 0.001 µM): 63.6%; viability, T/C [35]: 58.6%; viability, T/C [36]: 49.1%; viability, T/C (second compound 3.16 µM, first compound 0.000316 µM): 69.1%; viability, T/C (second compound 3.16 µM, first compound 0.001 µM): 70%; viability, T/C [37]: 67.3%; viability, T/C [38]: 56.9%; viability, T/C (second compound 10 µM, first compound 0.000316 µM): 61.3%; viability, T/C (second compound 10 µM, first compound 0.001 µM): 62.9%; viability, T/C [39]: 71.2%; viability, T/C [40]: 54.4%
